Experimental data published in ChEMBL document CHEMBL1124941, “Assessment of the in vivo and in vitro opioid activity of bridged hexahydroaporphine and isoquinoline molecules” (J Med Chem, 1990).

Assays:
[1] = species on record: Mus musculus; assay: Effective dose required for antinociceptive activity in mouse; assay type: functional
[2] = biological target: T1, Opioid receptor (Rattus norvegicus, UniProt P33533+P34975+P33535); assay type: tissue-based, Brain
Description: Concentration that produces 50% inhibition of stereospecific [3H]naloxone binding to opioid receptors in rat brain in presence of sodium.

[3] = biological target: T1, Opioid receptor; assay type: tissue-based, Brain; remark: listed apart in the source
Description: Concentration that produces 50% inhibition of stereospecific [3H]naloxone binding to opioid receptors in rat brain in absence of sodium.

SMILES | ED50 [1] | IC50 [2] | IC50 [3]
CN1CC[C@]23c4c5ccc(O)c4O[C@H]2[C@@H](O)C=C[C@H]3[C@H]1C5.CN1CC[C@]23c4c5ccc(O)c4O[C@H]2[C@@H](O)C=C[C@H]3[C@H]1C5.O=S(=O)(O)O | 0.0794 µg |  | 
COc1ccc2c(c1)C1CCC3CCC14C3CCN(C)C4C2.Cl (stereo not given) | 5.42 µg |  | 
CN1CCC2C3CCC4c5cc(O)ccc5CC1C42CC3.Cl (stereo not given) | 4.07 µg | 5.59 µM | 0.472 µM
